Results as given in PubChem BioAssay (NCI).
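In this assay, cells in 96-well plates receive the compound at five concentrations for 48 hours. Endpoints are linearly interpolated between the surrounding concentrations. GI50 marks 50% less growth. Definition used: TGI = concentration required for complete inhibition of growth.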

How the values were obtained:
Assay in all cases: growth of human tumour cells (NCI), 48 h
[1] = system: TK-10 renal
[2] = system: SF-295 CNS
[3] = system: SNB-19 CNS
[4] = system: SN12C renal
[5] = system: RXF 393 renal
[6] = system: HT29 colon
[7] = system: HL-60(TB) leukemia
[8] = system: MOLT-4 leukemia
[9] = system: MALME-3M melanoma
[10] = system: EKVX NSCLC

Row | SMILES | TGI [1] [µM] | TGI [2] [µM] | TGI [3] [µM] | TGI [4] [µM] | TGI [5] [µM] | TGI [6] [µM] | TGI [7] [µM] | TGI [8] [µM] | TGI [9] [µM] | TGI [10] [µM] | GI50 [1] [µM] | GI50 [2] [µM] | GI50 [3] [µM] | GI50 [4] [µM] | GI50 [5] [µM] | GI50 [6] [µM] | GI50 [7] [µM] | GI50 [8] [µM] | GI50 [9] [µM] | GI50 [10] [µM]
1 | Cc1nc2ccc(Cl)cc2c2c1CCN2c1ccccc1 | 37.7 | 20.1 | 78.5 | 17.2 | 18.6 | > 100 | 11.1 | 28.5 | 32.3 | 68.2 |  |  |  |  |  |  |  |  |  | 
2 | Cc1ccc(S(=O)(=O)N(CC(O)COc2ccccc2)c2ccc(F)cc2F)cc1 (stereo not drawn) | 45.9 | 34.4 | 41.9 | 34.2 | 27 | 29.4 | 57.6 | 94.2 | 36 | 35.7 |  |  |  |  |  |  |  |  |  | 
3 | O=C(CC1Sc2ccccc2NC1=O)Nc1ccc(Cl)cc1 (stereo not drawn) | > 100 | > 100 | > 100 | > 100 | 67.2 | > 100 | > 100 | > 100 | > 100 | > 100 |  |  |  |  |  |  |  |  |  | 
4 | O=C(c1ccco1)N(C(=S)OC12CC3CC(CC(C3)C1)C2)c1ccccc1 | > 100 | > 100 | > 100 | 62.8 | 44.8 | > 100 | 63.6 | > 100 | 65.7 | 50.1 |  |  |  |  |  |  |  |  |  | 
5 | N#Cc1nc(C#N)n(C(=O)c2ccccc2)c1NC(=O)c1ccccc1 | > 100 | > 100 | > 100 | > 100 | > 100 | > 100 | > 100 | > 100 | > 100 | > 100 |  |  |  |  |  |  |  |  |  | 
6 | Nc1nc(Cl)cc(NCC2(O)CCCC2)n1 | > 100 | > 100 |  | > 100 | > 100 | > 100 | > 100 | > 100 | > 100 | > 100 |  |  |  |  |  |  |  |  |  | 
7 | O=C1CC(n2cccc2)c2c(Br)sc(Br)c21 (stereo not drawn) | 45.4 | 55.8 | 28.1 | 31.1 | 43.4 | 32.1 | 41.4 | 33.6 | 38 | 33.3 |  |  |  |  |  |  |  |  |  | 
8 | CCOC(=O)C(=O)C(=O)NN(C)C1=NCCN1 | > 100 | > 100 | > 100 | > 100 | > 100 | > 100 | > 100 | > 100 | > 100 | > 100 |  |  |  |  |  |  |  |  |  | 
9 | COC(=O)C1=C(O)C(C(=O)OC)[C@]2(O)[C@H](C(=O)OC)[C@H]1C[C@@H](c1ccc([N+](=O)[O-])cc1)[C@H]2C(=O)OC (stereo partly drawn) | > 100 | > 100 | 65.5 | 47.7 | 32.4 | 55.6 | 45.8 | 81.6 | 17.5 | > 100 |  |  |  |  |  |  |  |  |  | 
10 | CCC(CC(C)C)Nc1ccc(NC(CC)CC(C)C)cc1 (stereo not drawn) | 32.3 | 61.4 | 29.4 | 32.2 | 28.1 | 30.5 | 30.2 | 44.5 | 34.3 | 37.6 | 17.7 | 23 | 15.9 | 16 | 14.9 | 15.1 | 10.6 | 17.8 | 14.7 | 16.7
11 | O=C(/C=C/c1cccs1)c1ccccc1Cl | 32.3 | 36.2 | 28.9 | 30.2 | 23.7 | 42.5 | 30.4 | > 23.4 | 26.7 | 30.8 |  |  |  |  |  |  |  |  |  | 
12 | Cc1ccccc1OC(C)C(=O)NN1C(=O)CC(=O)N(c2ccccc2)C1=S (stereo not drawn) | > 100 | > 100 | > 100 | > 100 | > 100 | > 100 | 61.2 | > 100 | > 100 | > 100 |  |  |  |  |  |  |  |  |  | 
13 | CC(C)(C)OC(=O)n1cc(C2CN(O)C(=O)C23CCC(=O)N3Cc2ccccc2)c2ccccc21 (stereo not drawn) | > 100 | > 100 | > 100 | 81.8 | > 100 | > 100 | > 100 | > 100 | > 100 | 47.7 |  |  |  |  |  |  |  |  |  | 
14 | O=C1C=CC(=O)c2c(Cl)ccc(O)c21 |  | > 57 | > 100 | 39 | 29.7 | 44.9 | 18.5 | 23.2 | 32.7 | 43 |  |  |  |  |  |  |  |  |  | 
15 | COc1ccccc1CNCCCCCCCCCCCCN1C(=O)c2ccc3c4c(ccc(c24)C1=O)C(=O)N(CCCCCCCCCCCCNCc1ccccc1OC)C3=O | 1.47 | > 50 | > 50 | > 50 | 2.11 | > 50 | > 50 | > 50 | > 50 | > 50 | 0.795 | 2.24 | > 50 | > 50 | 0.922 | 2.01 | > 50 | > 50 | > 50 | > 50
16 | NCCOCC(N)C(=O)O (stereo not drawn) | > 100 | > 100 | > 100 | > 100 | > 100 | > 100 | > 100 | > 100 | > 100 | > 100 |  |  |  |  |  |  |  |  |  | 
17 | NC1=NCC(CN2CCCC2)O1 (stereo not drawn) | > 100 | > 100 | > 100 | > 100 | > 100 | > 100 | > 100 | > 100 | > 100 | > 100 |  |  |  |  |  |  |  |  |  | 
18 | C/C(Nc1ccc(Cl)cc1Cl)=C1/CCOC1=O | > 100 | 54 | 67.1 | > 100 | 39.8 | > 100 | > 100 | > 100 | > 100 | 73.9 |  |  |  |  |  |  |  |  |  | 
